In patent publication US8802597B2, “Herbicidal pyrimidines” (E I du Pont de Nemours and Company, priority 2003, dated 2014):

Legend:
Type in all cases: in vivo
[1] = tested on: umbrella sedge (Cyperus difformis); test: Test B flooded paddy test; conditions: Flood, scale 0 to 100
How it was run: (§1)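 Visual injury scoring (0 = no effect, 100 = complete control) versus controls made 13 to 15 days after treatment in the greenhouse. Test species were grown in flooded paddy to the 2-leaf stage: rice, barnyardgrass, umbrella sedge, duck salad.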

[2] = tested on: duck salad (Heteranthera limosa); test: Test B flooded paddy test; conditions: Flood, scale 0 to 100
How it was run: as §1

rice (Oryza sativa) = test: Test B flooded paddy test; conditions: Flood, scale 0 to 100
How it was run: as §1

[3] = tested on: barnyardgrass (Echinochloa crus-galli); test: Test B flooded paddy test; conditions: Flood, scale 0 to 100
How it was run: as §1

wild oat (Avena fatua) = test: Test B postemergence; conditions: scale 0 to 100 (0 no effect, 100 complete control)
How it was run: (§2)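 Under greenhouse conditions, seeded pots and young plants (1- to 4-leaf, 2 to 18 cm) were treated at the same time with test chemicals in a non-phytotoxic solvent mixture containing surfactant. Response was assessed visually after 13 to 15 days, from 0 (no effect) to 100 (complete control).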

[4] = tested on: blackgrass (Alopecurus myosuroides); test: Test B postemergence; conditions: scale 0 to 100 (0 no effect, 100 complete control)
How it was run: as §2

[5] = tested on: pigweed (Amaranthus retroflexus); test: Test B pre/postemergence; conditions: for Pigweed plant response rating: Postemergence; for Plant response rating, Pigweed: Preemergence
How it was run: as §2

[6] = tested on: lambsquarters (Chenopodium album); test: Test B pre/postemergence; conditions: scale 0 to 100 (0 no effect, 100 complete control); for Lambsquarters plant response rating: Postemergence
How it was run: as §2

[7] = tested on: velvetleaf (Abutilon theophrasti); test: Test B pre/postemergence; conditions: for Velvetleaf plant response rating: Postemergence; for Plant response rating, Velvetleaf: Preemergence
How it was run: as §2

[8] = tested on: cocklebur (Xanthium strumarium); test: Test B pre/postemergence; conditions: for Cocklebur plant response rating: Postemergence; for Plant response rating, Cocklebur: Preemergence
How it was run: as §2

[9] = tested on: giant foxtail (Setaria faberii); test: Test B pre/postemergence; conditions: for Foxtail, Giant plant response rating: Postemergence; for Plant response rating, Foxtail, Giant: Preemergence
How it was run: as §2

[10] = tested on: morningglory (Ipomoea coccinea); test: Test B pre/postemergence; conditions: for Morningglory plant response rating: Postemergence; for Plant response rating, Morningglory: Preemergence
How it was run: as §2

[11] = tested on: Surinam grass (Brachiaria decumbens); test: Test B pre/postemergence; conditions: for Surinam Grass plant response rating: Postemergence; for Plant response rating, Surinam Grass: Preemergence
How it was run: as §2

[12] = tested on: crabgrass (Digitaria sanguinalis); test: Test B pre/postemergence; conditions: for Crabgrass plant response rating: Postemergence; for Plant response rating, Crabgrass: Preemergence
How it was run: as §2

corn (Zea mays) = test: Test B pre/postemergence; conditions: scale 0 to 100 (0 no effect, 100 complete control); for Corn plant response rating: Postemergence
How it was run: as §2

[13] = tested on: barnyardgrass (Echinochloa crus-galli); test: Test B pre/postemergence; conditions: for Barnyardgrass plant response rating: Postemergence; for Plant response rating, Barnyardgrass: Preemergence
How it was run: as §2

[14] = tested on: wheat (Triticum aestivum); test: Test B pre/postemergence; conditions: for Wheat plant response rating: Postemergence; for Plant response rating, Wheat: Preemergence
How it was run: as §2

[15] = 62 g ai/ha, scale 0 to 100 (0 no effect, 100 complete control)
[16] = 125 g ai/ha, scale 0 to 100 (0 no effect, 100 complete control)
[17] = 62 g ai/ha, scale 0 to 100, 0 no effect, 100 complete control

## COC(=O)c1nc(-c2ccc(Br)cc2)nc(N)c1Br [Compound 129]
[1]; 125 g ai/ha
  Plant response rating, Sedge, Umbrella: 90
[1]; 500 g ai/ha
  Plant response rating, Sedge, Umbrella: 100
[2]; 125 g ai/ha
  Plant response rating, Ducksalad: 100
[2]; 500 g ai/ha
  Plant response rating, Ducksalad: 100
Rice (Oryza sativa); 125 g ai/ha
  Plant response rating, Rice: 0
Rice (Oryza sativa); 500 g ai/ha
  Plant response rating, Rice: 0
[3]; 125 g ai/ha
  Plant response rating, Barnyardgrass: 0
[3]; 500 g ai/ha
  Plant response rating, Barnyardgrass: 20
Wild oat (Avena fatua); 62 g ai/ha
  Oat, Wild plant response rating: 0
Wild oat (Avena fatua); 125 g ai/ha
  Oat, Wild plant response rating: 40
[4]; 62 g ai/ha
  Blackgrass plant response rating: 70
[4]; 125 g ai/ha
  Blackgrass plant response rating: 70
[5]; [15]
  Pigweed plant response rating: 100
[5]; [16]
  Pigweed plant response rating: 100
  Plant response rating, Pigweed: 90
[5]; [17]
  Plant response rating, Pigweed: 80
[6]; 62 g ai/ha
  Lambsquarters plant response rating: 100
[6]; 125 g ai/ha
  Lambsquarters plant response rating: 100
[6]; Preemergence, 125 g ai/ha
  Plant response rating, Lambsquarters: 80
[7]; [15]
  Velvetleaf plant response rating: 80
[7]; [16]
  Velvetleaf plant response rating: 90
  Plant response rating, Velvetleaf: 60
[7]; [17]
  Plant response rating, Velvetleaf: 50
[8]; [15]
  Cocklebur plant response rating: 70
[8]; [16]
  Cocklebur plant response rating: 100
  Plant response rating, Cocklebur: 30
[8]; [17]
  Plant response rating, Cocklebur: 10
[9]; [15]
  Foxtail, Giant plant response rating: 40
[9]; [16]
  Foxtail, Giant plant response rating: 50
  Plant response rating, Foxtail, Giant: 0
[9]; [17]
  Plant response rating, Foxtail, Giant: 0
[10]; [15]
  Morningglory plant response rating: 50
[10]; [16]
  Morningglory plant response rating: 100
  Plant response rating, Morningglory: 0
[10]; [17]
  Plant response rating, Morningglory: 0
[11]; [15]
  Surinam Grass plant response rating: 50
[11]; [16]
  Surinam Grass plant response rating: 70
  Plant response rating, Surinam Grass: 10
[11]; [17]
  Plant response rating, Surinam Grass: 0
[12]; [15]
  Crabgrass plant response rating: 50
[12]; [16]
  Crabgrass plant response rating: 70
  Plant response rating, Crabgrass: 30
[12]; [17]
  Plant response rating, Crabgrass: 10
Corn (Zea mays); 62 g ai/ha
  Corn plant response rating: 70
Corn (Zea mays); 125 g ai/ha
  Corn plant response rating: 80
Corn (Zea mays); Preemergence, 125 g ai/ha
  Plant response rating, Corn: 0
[13]; [15]
  Barnyardgrass plant response rating: 60
[13]; [16]
  Barnyardgrass plant response rating: 70
  Plant response rating, Barnyardgrass: 30
[13]; [17]
  Plant response rating, Barnyardgrass: 10
[14]; [15]
  Wheat plant response rating: 0
[14]; [16]
  Wheat plant response rating: 20
  Plant response rating, Wheat: 20
[14]; [17]
  Plant response rating, Wheat: 0
